From ChEMBL document CHEMBL3870340, “Cytotoxic activity, apoptosis induction and structure-activity relationship of 8-OR-2-aryl-3,4-dihydroisoquinolin-2-ium salts as promising anticancer agents” (Bioorg Med Chem Lett, 2017)
Calls of active or inactive are those of the source. No cut-off for these calls is given here.

Key:
[1] = Cytotoxicity against human NB4 cells assessed as decrease in cell viability after 48 hrs by MTT assay; assay type: functional, cell-based; settings: NB-4, 48 h
[2] = Cytotoxicity against primary porcine fetal kidney cells assessed as decrease in cell viability after 48 hrs by MTT assay; assay type: toxicity, cell-based; settings: pig (Sus scrofa)
MKN-45 [3] = experiment: Induction of morphological changes in human MKN45 cells assessed as change in cytomembrane permeability at 0.41 uM after 48 hrs by acridine orange/ethidium bromide staining based fluorescence microscopy; assay type: functional, cell-based
NB-4 [4] = experiment: Induction of apoptosis in human NB4 cells assessed as viable cells at 11.5 uM after 48 hrs by annexin V/PI double staining based flow cytometry (reference value: 96.4%); assay type: functional; settings: NB-4, 48 h, read-out: Activity
[5] = Cytotoxicity against human MKN45 cells assessed as decrease in cell viability after 48 hrs by MTT assay; assay type: functional, cell-based; settings: MKN-45, 48 h
NB-4 [6] = experiment: Induction of apoptosis in human NB4 cells assessed as early apoptotic cells at 11.5 uM after 48 hrs by annexin V/PI double staining based flow cytometry (reference value: 2.3%); assay type: functional
MKN-45 [7] = experiment: Induction of apoptosis in human MKN45 cells assessed as necrotic cells at 2.03 uM after 48 hrs by annexin V/PI double staining based flow cytometry (reference value: 0.1%); assay type: functional
MKN-45 [8] = experiment: Induction of morphological changes in human MKN45 cells assessed as late apoptotic cells at 10.1 uM after 48 hrs by acridine orange/ethidium bromide staining based fluorescence microscopy; assay type: functional, cell-based
NB-4 [9] = experiment: Induction of apoptosis in human NB4 cells assessed as necrotic cells at 11.5 uM after 48 hrs by annexin V/PI double staining based flow cytometry (reference value: 0.6%); assay type: functional
MKN-45 [10] = experiment: Induction of apoptosis in human MKN45 cells assessed as viable cells at 2.03 uM after 48 hrs by annexin V/PI double staining based flow cytometry (reference value: 99.8%); assay type: functional; settings: MKN-45, 48 h, read-out: Activity
NB-4 [11] = experiment: Induction of morphological changes in human NB4 cells assessed as apoptotic features at 0.46 to 11.5 uM after 48 hrs by acridine orange/ethidium bromide staining based fluorescence microscopy; assay type: functional, cell-based
MKN-45 [12] = experiment: Induction of morphological changes in human MKN45 cells assessed as pyknosis in early apoptotic events at 0.41 uM after 48 hrs by acridine orange/ethidium bromide staining based fluorescence microscopy; assay type: functional, cell-based
MKN-45 [13] = experiment: Induction of apoptosis in human MKN45 cells assessed as necrotic cells at 10.1 uM after 48 hrs by annexin V/PI double staining based flow cytometry (reference value: 0.1%); assay type: functional
[14] = Antiproliferative activity against human NB4 cells at 5 uM after 48 hrs by MTT assay relative to control; assay type: functional; settings: NB-4, 48 h, read-out: GI
NB-4 [15] = experiment: Induction of apoptosis in human NB4 cells assessed as late apoptotic cells at 11.5 uM after 48 hrs by annexin V/PI double staining based flow cytometry (reference value: 0.7%); assay type: functional
NB-4 [16] = experiment: Induction of apoptosis in human NB4 cells assessed as viable cells at 2.30 uM after 48 hrs by annexin V/PI double staining based flow cytometry (reference value: 96.4%); assay type: functional; settings: NB-4, 48 h, read-out: Activity
MKN-45 [17] = experiment: Induction of morphological changes in human MKN45 cells assessed as apoptotic cells at 2.03 uM after 48 hrs by acridine orange/ethidium bromide staining based fluorescence microscopy; assay type: functional, cell-based
NB-4 [18] = experiment: Induction of apoptosis in human NB4 cells after 48 hrs by annexin V/PI double staining based flow cytometry; assay type: functional, cell-based
MKN-45 [19] = experiment: Induction of apoptosis in human MKN45 cells after 48 hrs by annexin V/PI double staining based flow cytometry; assay type: functional, cell-based
MKN-45 [20] = experiment: Induction of apoptosis in human MKN45 cells assessed as early apoptotic cells at 10.1 uM after 48 hrs by annexin V/PI double staining based flow cytometry (reference value: 0.1%); assay type: functional
MKN-45 [21] = experiment: Induction of apoptosis in human MKN45 cells assessed as early apoptotic cells at 2.03 uM after 48 hrs by annexin V/PI double staining based flow cytometry (reference value: 0.1%); assay type: functional
MKN-45 [22] = experiment: Induction of morphological changes in human MKN45 cells assessed as cell shrinkage at 0.41 uM after 48 hrs by acridine orange/ethidium bromide staining based fluorescence microscopy; assay type: functional
MKN-45 [23] = experiment: Induction of apoptosis in human MKN45 cells after 48 hrs by acridine orange/ethidium bromide staining based fluorescence microscopy; assay type: functional, cell-based
MKN-45 [24] = experiment: Induction of apoptosis in human MKN45 cells assessed as late apoptotic cells at 2.03 uM after 48 hrs by annexin V/PI double staining based flow cytometry (reference value: 0%); assay type: functional
[25] = Antiproliferative activity against human MKN45 cells at 20 uM after 48 hrs by MTT assay relative to control; assay type: functional; settings: MKN-45, 48 h, read-out: GI
NB-4 [26] = experiment: Induction of apoptosis in human NB4 cells assessed as necrotic cells at 2.30 uM after 48 hrs by annexin V/PI double staining based flow cytometry (reference value: 0.6%); assay type: functional
[27] = Cytotoxicity against primary goat fetal fibroblast assessed as decrease in cell viability after 48 hrs by MTT assay; assay type: toxicity; settings: goat (Capra hircus), primary goat fetal fibroblasts
MKN-45 [28] = experiment: Induction of morphological changes in human MKN45 cells assessed as condensation of cell nuclei and chromatins at 0.41 uM after 48 hrs by acridine orange/ethidium bromide staining based fluorescence microscopy; assay type: functional
MKN-45 [29] = experiment: Induction of apoptosis in human MKN45 cells assessed as late apoptotic cells at 10.1 uM after 48 hrs by annexin V/PI double staining based flow cytometry (reference value: 0%); assay type: functional
NB-4 [30] = experiment: Induction of apoptosis in human NB4 cells assessed as late apoptotic cells at 2.30 uM after 48 hrs by annexin V/PI double staining based flow cytometry (reference value: 0.7%); assay type: functional
MKN-45 [31] = experiment: Induction of apoptosis in human MKN45 cells assessed as viable cells at 10.1 uM after 48 hrs by annexin V/PI double staining based flow cytometry (reference value: 99.8%); assay type: functional; settings: MKN-45, 48 h, read-out: Activity
NB-4 [32] = experiment: Induction of apoptosis in human NB4 cells assessed as early apoptotic cells at 2.30 uM after 48 hrs by annexin V/PI double staining based flow cytometry (reference value: 2.3%); assay type: functional

COc1cccc2c1C=[N+](c1ccccc1I)CC2.[Br-]
IC50 [1]: 2300 nM | IC50 at 48 h [2]: 2410 nM | Activity (MKN-45 [3]): Active | viability at 11.5 µM (NB-4 [4]): 77.9% | IC50 [5]: 2030 nM | Activity (NB-4 [6]): 14.7% | Activity (MKN-45 [7]): 0.4% | Activity (MKN-45 [8]): Active | Activity (NB-4 [9]): 0.3% | viability at 2.03 µM (MKN-45 [10]): 82.2% | Activity (NB-4 [11]): Active | Activity (MKN-45 [12]): Active | Activity (MKN-45 [13]): 1.9% | inhibition of growth at 5 µM [14]: 49.7% | Activity (NB-4 [15]): 7.1% | viability at 2.3 µM (NB-4 [16]): 90.1% | Activity (MKN-45 [17]): Active | Activity (NB-4 [18]): Dose-dependent effect | Activity (MKN-45 [19]): Dose-dependent effect | Activity (MKN-45 [20]): 20.1% | Activity (MKN-45 [21]): 12.8% | Activity (MKN-45 [22]): Active | Activity (MKN-45 [23]): Dose-dependent effect | Activity (MKN-45 [24]): 4.6% | inhibition of growth at 20 µM [25]: 90.9% | Activity (NB-4 [26]): 0% | IC50 at 48 h [27]: 3510 nM | Activity (MKN-45 [28]): Active | Activity (MKN-45 [29]): 32% | Activity (NB-4 [30]): 2.2% | viability at 10.1 µM (MKN-45 [31]): 46% | Activity (NB-4 [32]): 7.7%
